In one assay the test system is Phytophthora cinnamomi. Nature of the assay: Amended agar assay (potato dextrose agar), reduction in colony growth. Format: cell-based. Particulars: read-out: Phytophthora cinnamomi (EC50). The method, then: (§1) Testing was carried out on potato dextrose agar (PDA) amended with each compound at test concentrations of 20, 4 and 0.8, 0.16 and 0.032 ppm. Amended agar at each test concentration was poured into three replicate 9 cm petri dishes. Each replicate dish was inoculated in the centre with a 5 mm agar plug taken from the leading edge of a culture aged between 2 and 7 days old; the age of the culture was dependant on the growth rate of the pathogen being tested. The test pathogens were Pythium ultimum and Phytophthora cinnamomi. Plates were incubated at 18° C. and the diameter of each colony measured before growth on the fastest growing plate reached the plate edge. This varied between 2 and 7 days depending on the growth rate of test pathogens. The % reduction in colony growth compared to the control was calculated for each test concentration and pathogen combination.
(§2) The results are shown in Table 1 in which * represents an average control of up to 50% at said dosage; ** represents an average control of 50% or greater but less than 80% at said dosage; and *** represents an average control of 80% or greater at said dosage.
(§3) A primary screen was also conducted for a number of other compounds of the invention. The screen was conducted at 20 ppm and the results are provided in Table 2, in which D represents no control detected at this concentration; C represents up to 50% control; B from 50 to 99% control; and A represents a control of greater than 99%.
(§4) Alternatively, or in addition, the same assay was conducted at descending test concentrations with 5-fold dilutions typically down to 0.032 ppm, and an EC50 (the concentration at which 50% control would be achieved) was determined. The results are provided in Table 1 in which G represents an EC50 above 20 ppm, F represents an EC50 of 2-20 ppm and E represents and EC50 less than 2 ppm.

The test system of a further assay is Pythium ultimum. The description is as above. Format: cell-based. Particulars: Globisporangium ultimum, read-out: Pythium ultimum (EC50). Here is the method: as §1, §2, §3, §4
The mark [1] stands for this setting: descending test concentrations, 5-fold dilutions typically down to 0.032 ppm.

Where two headings read alike, the source gives them in different places.

For the molecule `CCCCOC(=O)Nc1cccc(COc2nc3ccccc3n2-c2nnnn2C)n1` [Example 13], the EC50 with Phytophthora cinnamomi (setting [1]) and with Pythium ultimum (setting [1]) was less than 2 µg/mL in each case.

Regarding `Cn1nnnc1-n1c(OCc2cccc(NC(=O)OCc3ccccc3)n2)nc2ccccc21` [Example 14], the EC50 in the assay with Phytophthora cinnamomi (setting [1]) and in the assay on Pythium ultimum (setting [1]) was less than 2 µg/mL throughout.

`Cn1nnnc1-n1c(OCc2cccc(NC(=O)Oc3ccccc3)n2)nc2ccccc21` [Example 15]: the EC50 in the assay on Phytophthora cinnamomi and in the assay on Pythium ultimum was less than 2 µg/mL each time.

Turning to `CCCCCOC(=O)Nc1cccc(COc2nc3ccccc3n2-c2nnnn2C)n1` [Example 16], the EC50 in the assay with Phytophthora cinnamomi (setting [1]) and in the assay with Pythium ultimum (setting [1]) was less than 2 µg/mL in each case.

For `CC(C)OC(=O)Nc1cccc(COc2nc3ccccc3n2-c2nnnn2C)n1` [Example 17], the EC50 in the assay with Phytophthora cinnamomi (setting [1]) and with Pythium ultimum (setting [1]) was less than 2 µg/mL in each case.

Consider `CC(C)COC(=O)Nc1cccc(COc2nc3ccccc3n2-c2nnnn2C)n1` [Example 18], for which the EC50 in the assay on Phytophthora cinnamomi (setting [1]) and in the assay on Pythium ultimum (setting [1]) was less than 2 µg/mL in each case.

`C=CCOC(=O)Nc1cccc(COc2nc3ccccc3n2-c2nnnn2C)n1` [Example 19]: the EC50 in the assay on Phytophthora cinnamomi (setting [1]) and in the assay with Pythium ultimum (setting [1]) was less than 2 µg/mL each time.

For the molecule `COCCOC(=O)Nc1cccc(COc2nc3ccccc3n2-c2nnnn2C)n1` [Example 20], the EC50 in the assay on Phytophthora cinnamomi (setting [1]) and in the assay with Pythium ultimum (setting [1]) was less than 2 µg/mL throughout.

Regarding `CCCOC(=O)Nc1cccc(COc2nc3ccccc3n2-c2nnnn2C)n1` [Example 21], the 50% effective concentration (EC50) in the assay on Phytophthora cinnamomi (setting [1]) and with Pythium ultimum (setting [1]) was less than 2 µg/mL each time.

As for `Cn1nnnc1-n1c(OCc2cccc(NC(=O)CC3CCCC3)n2)nc2ccccc21` [Example 22, 2-Cyclopentyl-N-(6-(((1-(1-methyl-1H-tetrazol-5-yl)-1H-benzo[d]imidazol-2-yl)oxy)methyl)pyridin-2-yl)acetamide], the EC50 in the assay on Phytophthora cinnamomi (setting [1]) and in the assay on Pythium ultimum (setting [1]) was less than 2 µg/mL throughout.

As for `Cn1nnnc1-n1c(OCc2cccc(NC(=O)C3CCCC3)n2)nc2ccccc21` [Example 23], the EC50 in the assay on Phytophthora cinnamomi (setting [1]) and with Pythium ultimum (setting [1]) was less than 2 µg/mL in each case.

For `Cn1nnnc1-n1c(OCc2cccc(NC(=O)COCc3ccccc3)n2)nc2ccccc21` [Example 24], the EC50 in the assay with Phytophthora cinnamomi (setting [1]) and in the assay on Pythium ultimum (setting [1]) was less than 2 µg/mL each time.

In the case of `Cn1nnnc1-n1c(OCc2cccc(NC(=O)COc3ccccc3)n2)nc2ccccc21` [Example 25], the concentration giving a half-maximal response (EC50) with Phytophthora cinnamomi (setting [1]) and in the assay on Pythium ultimum (setting [1]) was less than 2 µg/mL in each case.

Consider `Cn1nnnc1-n1c(OCc2cccc(NC(=O)CCC3CCCC3)n2)nc2ccccc21` [Example 26], for which the EC50 in the assay on Phytophthora cinnamomi (setting [1]) and in the assay with Pythium ultimum (setting [1]) was less than 2 µg/mL in each case.

With `Cn1nnnc1-n1c(OCc2cccc(NC(=O)c3ccccc3)n2)nc2ccccc21` [Example 27], the EC50 in the assay with Phytophthora cinnamomi (setting [1]) and with Pythium ultimum (setting [1]) was less than 2 µg/mL throughout.

On to `CCC(=O)Nc1cccc(COc2nc3ccccc3n2-c2nnnn2C)n1` [Example 28], for which the EC50 in the assay with Phytophthora cinnamomi (setting [1]) and in the assay with Pythium ultimum (setting [1]) was less than 2 µg/mL in each case.

For `Cn1nnnc1-n1c(OCc2cccc(NC(=O)Cc3ccccc3)n2)nc2ccccc21` [Example 29], the EC50 in the assay on Phytophthora cinnamomi (setting [1]) and in the assay on Pythium ultimum (setting [1]) was less than 2 µg/mL throughout.

As for `CCCC(=O)Nc1cccc(COc2nc3ccccc3n2-c2nnnn2C)n1` [Example 30], the EC50 in the assay with Phytophthora cinnamomi (setting [1]) and in the assay on Pythium ultimum (setting [1]) was less than 2 µg/mL each time.

Consider `CCCCC(=O)Nc1cccc(COc2nc3ccccc3n2-c2nnnn2C)n1` [Example 31], for which the EC50 in the assay with Phytophthora cinnamomi (setting [1]) and in the assay with Pythium ultimum (setting [1]) was less than 2 µg/mL in each case.

In the case of `Cn1nnnc1-n1c(OCc2cccc(NC(=O)C3CC3)n2)nc2ccccc21` [Example 32], the EC50 in the assay with Phytophthora cinnamomi (setting [1]) and with Pythium ultimum (setting [1]) was less than 2 µg/mL in each case.

Take `COCC(=O)Nc1cccc(COc2nc3ccccc3n2-c2nnnn2C)n1` [Example 33]: the EC50 in the assay with Phytophthora cinnamomi (setting [1]) and in the assay with Pythium ultimum (setting [1]) was 2 to 20 µg/mL each time.

Consider `COc1ccc(C(=O)Nc2cccc(COc3nc4ccccc4n3-c3nnnn3C)n2)cc1` [Example 34], for which the concentration for a half-maximal effect (EC50) with Phytophthora cinnamomi (setting [1]) and in the assay with Pythium ultimum (setting [1]) was less than 2 µg/mL in each case.

Consider `Cn1nnnc1-n1c(OCc2cccc(NC(=O)C3CCCCC3)n2)nc2ccccc21` [Example 35], for which the EC50 in the assay on Phytophthora cinnamomi (setting [1]) and in the assay on Pythium ultimum (setting [1]) was less than 2 µg/mL each time.

The term EC50 denotes the concentration giving half of the maximal effect.

Values taken from patent US11641858B2, “Agricultural chemicals” (Redag Crop Protection Ltd, priority 2016, dated 2023).
